# How the values were obtained:
# [1] = tested on: 6-week-old male CRj:CD(SD) rat; test: Oral toxicity, 14-day repeated oral administration; type: in vivo
# Description: A test substance which had been emulsified and dispersed in a 2%-gum arabic aqueous solution (containing 0.5%-Tween 80) was compulsorily administered in a 6-week-old male CRj:CD(SD) rat once a day for 14 days by using an oral sonde. A body weight variation and a general state during the administration period were observed. The rat was fasted for one day from the final administration date (drinking was freely taken), and on the day after final administration, taking a blood sample (for various blood tests) and mass measurement of major organs were performed. In addition, with respect to the liver, kidney, spleen, and testis, a histopathological examination (optical microscopic observation of HE-stained thin sliced tissue piece) was also carried out. A dose was set to 1,000, 250, 60, 15, and 0 mg/kg/day (administration liquid volume=1 mL/100 g-body weight/day), respectively, and five animals were used for each dosage.
# (1) NL (GC purity: 99.7%)
# (2) Glutaraldehyde (water content: 101 ppm, GC purity: 99.8%)
# As a result of the test, with respect to NL, no fatal case was admitted even at the highest dose of 1,000 mg/kg/day.
# [2] = tested on: sludge of the sewage treatment plant; test: Bactericidal test on sludge (MTT method); type: cell-based; conditions: sludge bacterial culture, about 25° C., 24 and 48 hours, MTT visual
# Experimental: To a synthetic sewer water prepared by dissolving 5 g of each of glucose, peptone, and monopotassium dihydrogen phosphate in one liter of water and adjusting the pH at 7.0±1.0 with sodium hydroxide, a sludge of the sewage treatment plant located in the Mizushima district, Kurashiki-shi, Okayama Prefecture, Japan was added in an amount of 30 ppm as converted to dry mass, thereby preparing a bacterial culture. Meanwhile, a test substance was diluted with distilled water on a scale of […] in a final concentration of 1,000 to 0.004 ppm (common ratio=4) on a 24-well microplate, thereby preparing test solutions. Two wells were used for every concentration. As a comparison target, (distilled water+bacterial culture) was defined as “bacterial culture blank”, and distilled water alone was defined as “blank”.
# The above-prepared bacterial culture and test solution were mixed in a volume ratio of 1/1, and the mixture was allowed to stand within a thermostatic tank at ambient temperature (about 25° C.) for 24 hours and 48 hours, respectively. A level of sludge influence at each concentration of the test substance was visually observed by means of the MTT method. An MTT reagent is converted by mitochondria as a microorganism in the sludge to form formazan, thereby developing a blue color.
# (1) Mixture of NL and MOL (GC purity: 98.7%, NL/MOL=59/41) […]
# [3] = tested on: Pseudokirchneriella subcapitata; test: Alga growth inhibition test (OECD Test Guidelines No. 201); type: cell-based; conditions: Selenastrum capricornutum; algae growth inhibition, 23° C., 72 hours; read-out: ErC50 (72 hr)
# Experimental: An alga growth inhibition test of a test substance was carried out with reference to OECD Test Guidelines No. 201. That is, each of the following test substances was diluted with a test medium to a prescribed dosage. A liquid suspension of algae which had been grown to an exponential growth phase by preculture was added in an initial concentration of 1×10^4 cells/mL. The liquid suspension was subjected to shaking culture at 23° C. using a light irradiation-type bio shaker (BR-180LF, manufactured by Taitec Corporation), the number of algae cells at an elapsed time of 24, 48, and 72 hours, respectively after the start of the test was counted with a flow cytometer (Cell Lab Quant SC, manufactured by Beckman Coulter, Inc.), and a growth ratio at each test dosage was calculated while defining a growth ratio of the normal control as 100%. In addition, ErC50 was calculated according to an equation of an approximate curve of a graph plotting a growth inhibition ratio.
# Algae: Pseudokirchneriella subcapitata
# Dosage of Test Substance:
# Each of the test substance (1) and the test substance (2): 100, 32, 10, 3.2, 1, 0.32 mg/L (common ratio: √10), and 0 mg/L (normal control)
# Standard substance: 3.2, 1, 0.32 mg/L, and 0 mg/L (normal control)
# [4] = Removal of H2S from crude oil in autoclave (Examples 2-3, Comparative Examples 1-2); conditions: liquid added at 1% by mass, 80° C., 5 hours, 800 rpm; for H2S concentration of the gas phase part after the reaction: initial 2,580-2,800 ppm
# Experimental: In a 100-mL autoclave equipped with a thermometer and a stirrer, 30 mL of a crude oil collected in Japan was charged and stirred until an H2S concentration of a gas phase part became constant. Thereafter, the concentration was measured with RX-517 (manufactured by Riken Kiki Co., Ltd.) and found to be 2,800 ppm. Subsequently, a composition liquid prepared by mixing PEG-200 and NL/MOL in a mass ratio of 1/1 was added in a concentration of 1% by mass relative to the crude oil. At this time, the addition amount of NL/MOL was 0.6 mmol, and the presence amount of H2S within the apparatus was 0.05 mmol. Thereafter, the inside of the apparatus was subjected to temperature rise to 80° C. while stirring at 800 rpm, and the contents were allowed to react with each other for 5 hours. After the reaction, the reaction mixture was cooled to room temperature, an H2S concentration of the gas phase part was measured and found to be 2 ppm, and a removal efficiency was 99.9%.
# (§1) In a 100-mL autoclave equipped with a thermometer and a stirrer, 30 mL of a crude oil collected in Japan was charged and stirred until an H2S concentration of a gas phase part became constant. Thereafter, the concentration was measured with RX-517 (manufactured by Riken Kiki. Co., Ltd.) and found to be 2,580 ppm. Subsequently, a 50% by mass MGL aqueous solution was added in a concentration of 1% by mass relative to the crude oil. At this time, the addition amount of MGL was 0.9 mmol, and the presence amount of H2S within the apparatus was 0.05 mmol. Thereafter, the inside of the apparatus was subjected to temperature rise to 80° C. while stirring at 800 rpm, and the contents were allowed to react with each other for 5 hours. After the reaction, the reaction mixture was cooled to room temperature, an H2S concentration of the gas phase part was measured and found to be 70 ppm, and a removal efficiency was 97.3%.
# as §1, with “Kiki” for “Kiki.”, “2,714” for “2,580”, “glutaraldehyde” for “MGL”, “1.0” for “0.9”, “100” for “70”, “96.3%.” for “97.3%.”
# In a 100-mL autoclave equipped with a thermometer and a stirrer, 30 mL of a crude oil collected in Japan was charged and stirred until an H2S concentration of a gas phase part became constant. Thereafter, the concentration was measured with RX-517 (manufactured by Riken Kiki Co., Ltd.) and found to be 2,600 ppm. Subsequently, a 40% by mass glyoxal aqueous solution (manufactured by Wako Pure Chemical Industries, Ltd.) was added in a concentration of 1% by mass relative to the crude oil. At this time, the addition amount of glyoxal was 1.8 mmol, and the presence amount of H2S within the apparatus was 0.04 mmol. Thereafter, the inside of the apparatus was subjected to temperature rise to 80° C. while stirring at 800 rpm, and the contents were allowed to react with each other for 5 hours. After the reaction, the reaction mixture was cooled to room temperature, an H2S concentration of the gas phase part was measured and found to be 498 ppm, and a removal efficiency was 80.8%.
# [5] = rat, oral, once a day for 14 days
smiles,measurement,setting,value
"O=CCCCC=O [Glutaraldehyde, glutaraldehyde]",NOEL (maximum no-effect level),[1]; [5],5 mg/kg
same,Sterilizing concentration,[2],63 ppm
same,EC50,[3],9 µg/mL
same,removal efficiency,[4],96.3%
same,H2S concentration of the gas phase part after the reaction,[4],100 ppm
"CC(CC=O)CC=O [MGL, 3-methylglutaraldehyde]",removal efficiency,[4],97.3%
same,H2S concentration of the gas phase part after the reaction,[4],70 ppm
"O=CCCCCCCCC=O [NL, 1,9-nonanedial]",classification as deleterious substance,[1]; rat oral toxicity test,not corresponding to a “deleterious substance”
same,NOEL (maximum no-effect level),[1]; [5],250 mg/kg
same,fatal cases,"[1]; rat, oral, once a day for 14 days, highest dose of 1,000 mg/kg/day",no fatal case
O=CC=O [glyoxal],removal efficiency,[4],80.8%
same,H2S concentration of the gas phase part after the reaction,[4],498 ppm

# Source: US10119079B2, “Composition for removal of sulfur-containing compounds” (KURARAY CO., LTD., priority 2014, dated 2018)
